Assay results reported in patent publication US11767344B2, “Pharmaceutically acceptable salts of polypeptides and methods of inhibiting the interaction between psd-95 and n-methyl-d-aspartic acid receptor (nmdar)” (BIOCELLS (BEIJING) BIOTECH CO., LTD., priority 2017, dated 2023).
Entries after “also recorded” stand apart in the source; their conditions may differ.

What was measured:
PC12 cells = details: 5 μM, 24 hours
PDZ1/2 domain [1] = biological target: T1, PDZ1/2 domain (Homo sapiens, UniProt P78352)
T1 sequence (P78352 61-249 limits assumed): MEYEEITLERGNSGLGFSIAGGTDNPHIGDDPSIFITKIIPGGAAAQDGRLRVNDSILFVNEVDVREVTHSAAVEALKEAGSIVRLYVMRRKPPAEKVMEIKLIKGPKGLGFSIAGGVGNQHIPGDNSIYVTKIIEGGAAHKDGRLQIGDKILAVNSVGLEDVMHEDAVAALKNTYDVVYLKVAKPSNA

PDZ1/2 domain [2] = biological target: T1, PDZ1/2 domain; details: His beads, SDS-PAGE of eluate, FIG. 1

Row | SMILES | cytotoxicity (cell viability) (PC12 cells) | interaction with the PDZ1/2 domain as compared with control chimeric peptide NA-1 (PDZ1/2 domain [1]) | binding to PDZ1/2 domain in pull-down assay (PDZ1/2 domain [2])
1 | CC[C@H](C)[C@H](NC(=O)[C@H](CCC(=O)O)NC(=O)[C@@H](NC(=O)[C@H](CC(=O)O)NC(=O)[C@H](CC(C)C)NC(=O)[C@H](CC(C)C)NC(=O)[C@H](CCCCN)NC(=O)[C@H](CCC(=O)O)NC(=O)[C@H](Cc1ccc(O)cc1)NC(=O)[C@H](CCCNC(=N)N)NC(=O)[C@H](CCCNC(=N)N)NC(=O)[C@H](CCCNC(=N)N)NC(=O)[C@H](CCC(N)=O)NC(=O)[C@H](CCCNC(=N)N)NC(=O)[C@H](CCCNC(=N)N)NC(=O)[C@H](CCCCN)NC(=O)[C@H](CCCCN)NC(=O)[C@H](CCCNC(=N)N)NC(=O)CNC(=O)[C@@H](N)Cc1ccc(O)cc1)[C@@H](C)O)C(=O)O [P5-Ac] | no significant cytotoxicity | – | –
2 | CC[C@H](C)[C@H](NC(=O)[C@H](CCC(=O)O)NC(=O)[C@@H](NC(=O)[C@H](CC(=O)O)NC(=O)[C@H](CC(C)C)NC(=O)[C@H](CC(C)C)NC(=O)[C@H](CCCCN)NC(=O)[C@H](CCC(=O)O)NC(=O)[C@H](Cc1ccc(O)cc1)NC(=O)[C@H](CCCNC(=N)N)NC(=O)[C@H](CCCNC(=N)N)NC(=O)[C@H](CCCNC(=N)N)NC(=O)[C@H](CCC(N)=O)NC(=O)[C@H](CCCNC(=N)N)NC(=O)[C@H](CCCNC(=N)N)NC(=O)[C@H](CCCCN)NC(=O)[C@H](CCCCN)NC(=O)[C@H](CCCNC(=N)N)NC(=O)CNC(=O)[C@@H](N)Cc1ccc(O)cc1)[C@@H](C)O)C(=O)O [P5] | – | interacted more strongly | can bind to the PDZ1/2 domain; also recorded: capable of binding to PDZ1/2 domain
